Patent US10414721B1, “Inhibitor of endocannabinoid cellular reuptake” (University of Bern, priority 2018, dated 2019)
Entries after “also recorded” stand apart in the source; their conditions may differ.

How the values were obtained:
C57BL6/N mice = test: Holeboard (HB) test; format: in vivo, mouse; details: 3 mg/kg, 1 h post injection
Experimental: WOBE437 was initially assessed in a battery of four individual tests typically associated with CB1 receptor activation in mice (nociception, locomotion, body temperature and cataleptic behavior), collectively referred to as the “tetrad”. Dose-response experiments identified 10 mg/kg as the lowest dose to elicit a moderate but complete tetrad in BALB/c mice upon intraperitoneal (i.p.) administration (FIGS. 3A-D). […] To assess whether the WOBE437-induced effects were CB1 receptor-mediated, mice were pre-treated with the selective antagonist/inverse agonist rimonabant (SR1). […] These experiments provided a proof-of-concept for the mechanism of action of WOBE437 as a novel “indirect CB1 receptor agonist”. In subsequent studies, the effects of WOBE437 in pain, inflammatory and anxiety models were investigated. […] Both effects were reversed by SR1.
WOBE437 and RX-055 were tested in independent laboratories, in different mouse strains and in multiple (behavioral) models for cannabimimetic, analgesic, anti-inflammatory and anxiolytic-effects in wild-type and phenotypical CB1-KO mice as described in Chicca 2017.

[1] = Microsomal clearance, mouse liver microsomes; format: in vitro ADME
Experimental: Human or mice microsome clearance experiment were carried out as according to a previously describe protocol. Briefly, microsome preparation (0.5 mg/mL) plus cofactor NADPH solution was incubated with 1 μM of WOBE437 in 96-well plates at 37° C. After 1, 3, 6, 9, 15, 25, 35 and 45 min, 40 μL of the preparation was transferred and quenched with 3:1 (v/v) acetonitrile containing internal standards. Samples were then cooled and centrifuged before analysis by LC-MS/MS. Log peak area ratios (test compound peak area/internal standard peak area) are plotted against incubation time using a linear fit. The calculated slope is used to determine the intrinsic clearance. Data are obtained from single experiments measured with multiple time-points.

BALB/c mice = test: Complete Freund's adjuvant induced monoarthritis; format: in vivo, mouse
Experimental: BALB/c mice were anesthetized with xylazine/ketamine (5 and 10 mg/kg, respectively) and subsequently monoarthritis was induced by intra-articular injection of complete Freund's adjuvant (CFA, 40 μL; Sigma-Aldrich, St. Louis, USA) into the right knee joint. The inflammation was allowed to develop for 14 days prior to pharmacological treatments starting at day 15 for 1 or 3 days, respectively. Mechanical sensitivity (allodynia) and knee diameter (edema) were evaluated 1 h post treatment in the ipsilateral and contralateral knees. Articular sensitivity was evaluated using a digital algometer (Bioseb, USA). […] A cut-off force of 300 g was considered to avoid damage in the tissue. The measurements were done in triplicates and the average was considered for the statistical analysis. To evaluate the degree of inflammation, knee diameter was measured in both extremities using a digital micrometer (Mitutoyo, USA). WOBE437 was administered at doses of 2.5, 5 or 10 mg/kg, either as single dose or for 3 days treatment. To evaluate the involvement of CB1 and CB2 receptors, TRPV1 and PPARγ, rimonabant (5 mg/kg, CB1 receptor antagonist/inverse agonist), SR144528 (3 mg/kg, CB2 receptor antagonist/inverse agonist; Cayman Chemical, USA), capsazepine (5 mg/kg, TRPV1 antagonist; Tocris Bioscience, UK) and GW9662 (3 mg/kg, PPARγ antagonist; Tocris Bioscience, UK) were injected 30 min before WOBE437 administration. Indomethacin (5 mg/kg; Sigma-Aldrich, USA) was used as a reference drug (positive control). For all the compounds, dimethylsulfoxide (DMSO) was used as vehicle (20 μL, i.p.).

[2] = LC-MS/MS quantification of WOBE437 in tissues after i.p. injection; format: in vivo, mouse; design: highest concentration in brain: unit not given here
Experimental: (§1) In order to investigate whether there was a link between the in vivo pharmacological effects of WOBE437 and the inhibition of EC uptake in vitro, the levels of WOBE437, AEA, 2-AG and related lipids in different tissues were quantified by LC-MS/MS. […] The Cbrain/Cplasma ratio (Kp) of WOBE437 was 0.65 after 5 min, 1.64 after 15 min and reached 1.9 after 30 and 60 min (FIGS. 4A and 4E). The peak concentration of WOBE437 in the brain was 780±267 nM, thus being in line with the bioactive concentrations determined in cellular assays. […] Only at 15 min post-injection, WOBE437 prevented the moderate increase of 2-AG induced by DMSO (FIG. 4C). […] On the contrary, 2-AG levels increased 1.7-fold compared to vehicle at 1 h post-injection (FIG. 4G). […] Repeated administrations of WOBE437 led to a significant 3-fold increase of corticosterone in the brain, which mirrors the changes observed in plasma (FIG. 4H). In peripheral organs, WOBE437 reached peak concentrations of 5-20 nmol/g tissue, without any signs of accumulation over 7 days. […] However, EC concentrations were not affected by repeated administrations of WOBE437 in peripheral tissues. Again, corticosterone levels were increased in spleen, liver and kidney.
(§2) WOBE437, AEA, 2-AG, other lipids and hormones were quantified by LC-MS/MS in different biological matrices (cells, human whole blood, rodent tissues) as reported in Chicca 2017.

45 CNS-related receptors = test: CNS adverse drug reaction screening panel (CEREP); format: binding; details: including cannabinoid receptors
Experimental: CB1 and CB2 receptor binding assays [^35S]GTPγS assays were performed as previously described. WOBE437 was profiled in more detail in an extended CNS adverse drug reaction screening panel (CEREP).

C57BL6/J mice = test: LC-MS/MS quantification of endocannabinoids, lipids and corticosterone after i.p. injection; format: in vivo, mouse
Experimental: as §1, §2

[3] = 7 days of daily treatment, 10 mg/kg i.p.

## CCCCCCC/C=C/C=C/C(=O)NCCc1ccc(OC)c(OC)c1 [WOBE437, (2E,4E)-N-[2-(3,4-Dimethoxyphenyl)ethyl]dodeca-2,4-dienamide]
C57BL6/N mice
  head dipping frequency: significantly increased
[1]; 1 μM, preliminary
  clearance: 174 µL/min/kg
[1]; mouse, mice, from microsomal clearance, read-out: estimated maximal bioavailability
  bioavailability at 1 μM: 17%
BALB/c mice; 10 mg/kg i.p., 3 days
  antiallodynia and antiinflammatory effects after rimonabant, SR144528 or GW9662 pre-treatment: fully abolished
  reduction of inflammation (edema): 58%
BALB/c mice; 10 mg/kg i.p., 3 days, as compared to contralateral knee
  reduction in allodynia: 52%
BALB/c mice; 10 mg/kg i.p., 3 days, vehicle 6.5±0.9, contralateral 4.5±0.3
  knee diameter: 5.3±0.4 mm
BALB/c mice; 10 mg/kg i.p., single dose
  allodynia after single dose: significantly decrease allodynia
  antiallodynia effect after SR144528 (3 mg/kg) or capsazepine (5 mg/kg) pre-treatment: completely prevented
  antiallodynia effect after rimonabant or GW9662 pre-treatment: did not block
BALB/c mice; 2.5 and 5.0 mg/kg i.p.
  allodynia and edema: did not show any significant changes
[2]; 10 mg/kg i.p.
  peak concentration in the brain: 780 ± 267 nM
  peak concentrations in peripheral organs: 5-20 nmol/g tissue
  peak plasma concentration: 492±103
  time of highest brain concentration: 30 min
  time of peak plasma concentration: 15 min
[2]; 10 mg/kg i.p., 1 h
  brain concentration: 652±165 pmol/g brain
[2]; 10 mg/kg i.p., after 15 min
  Cbrain/Cplasma ratio (Kp): > 1
[2]; 10 mg/kg i.p., after 30 min
  highest concentration in brain: 919±314
[2]; mouse, brain, ip, 1 h after a single injection, 10 mg/kg i.p., read-out: estimated brain concentration
  concentration at 1 h: 555 nM
[2]; mouse, brain, ip, after 7 days of treatment, 10 mg/kg i.p. daily, read-out: estimated brain concentration
  concentration at 7 days: 926 nM
[2]; mouse, brain/plasma, ip, 10 mg/kg, 10 mg/kg i.p., after 30 and 60 min, read-out: Cbrain/Cplasma ratio (Kp)
  Kp at 1 h: 1.9
[2]; mouse, brain/plasma, ip, 10 mg/kg, 10 mg/kg i.p., after 5 min, read-out: Cbrain/Cplasma ratio (Kp)
  Kp at 5 min: 0.65
[2]; mouse, brain/plasma, ip, 10 mg/kg, 10 mg/kg i.p., after 15 min, read-out: Cbrain/Cplasma ratio (Kp)
  Kp at 0.25 h: 1.64
[2]; mouse, plasma, ip, 10 mg/kg i.p.
  half-life: 203 min
45 CNS-related receptors
  interaction with 45 CNS-related receptors: did not exhibit any significant interaction
C57BL6/J mice; [3]
  brain 2-AG level increase compared to vehicle (DMSO): 1.5 fold
  brain AEA level increase compared to vehicle (DMSO): 1.5 fold
C57BL6/J mice; after 7 days
  circulating concentration of corticosterone: doubled
C57BL6/J mice; brain, plasma and peripheral organs
  concentrations of other lipids (NAEs, AA, prostaglandins and progesterone): not significantly altered
C57BL6/J mice; repeated administration
  increase of corticosterone levels in brain, plasma and peripheral organs: 2-4 fold
C57BL6/J mice; repeated administrations
  increase of corticosterone in the brain: 3 fold
C57BL6/J mice; repeated administrations, 10 mg/kg
  EC concentrations in peripheral tissues: not affected; also recorded: did not significantly alter
C57BL6/J mice; single and repeated injection(s)
  AEA and 2-AG levels in plasma: not significantly affected
C57BL6/J mice; single injection
  2-AG levels in peripheral organs: not altered in the spleen, but dropped significantly after 60-360 min in liver and kidney
  AEA level in peripheral organs: did not change in liver, whereas in kidney and spleen it moderately diminished
  brain AEA levels compared to basal level: did not change
C57BL6/J mice; single injection 10 mg/kg i.p., 1 h post-injection
  brain 2-AG level increase compared to vehicle: 1.7 fold
